“Also recorded” adds a separate entry of the source.
Legend:
kappa opioid receptor = kappa opioid receptor (Homo sapiens, UniProt P41145); experiment: k-Opioid receptor agonism assay (Tango  U2OS cells); type: cell-based; details: Compound 1 at 1 μM, TASIN-1 100 nM, U50488 2 μM
[1] = target: T1, estrogen receptor (T47D cells) (Homo sapiens, UniProt P03372); experiment: Estrogen-dependent cell proliferation assay; type: cell-based; details: Compound 1 at 1 μM, TASIN-1 100 nM
T1 construct: estrogen dependent growth of T47D cells; endogenous in cells; host or cells: T47D
T1 sequence (P03372 1-595): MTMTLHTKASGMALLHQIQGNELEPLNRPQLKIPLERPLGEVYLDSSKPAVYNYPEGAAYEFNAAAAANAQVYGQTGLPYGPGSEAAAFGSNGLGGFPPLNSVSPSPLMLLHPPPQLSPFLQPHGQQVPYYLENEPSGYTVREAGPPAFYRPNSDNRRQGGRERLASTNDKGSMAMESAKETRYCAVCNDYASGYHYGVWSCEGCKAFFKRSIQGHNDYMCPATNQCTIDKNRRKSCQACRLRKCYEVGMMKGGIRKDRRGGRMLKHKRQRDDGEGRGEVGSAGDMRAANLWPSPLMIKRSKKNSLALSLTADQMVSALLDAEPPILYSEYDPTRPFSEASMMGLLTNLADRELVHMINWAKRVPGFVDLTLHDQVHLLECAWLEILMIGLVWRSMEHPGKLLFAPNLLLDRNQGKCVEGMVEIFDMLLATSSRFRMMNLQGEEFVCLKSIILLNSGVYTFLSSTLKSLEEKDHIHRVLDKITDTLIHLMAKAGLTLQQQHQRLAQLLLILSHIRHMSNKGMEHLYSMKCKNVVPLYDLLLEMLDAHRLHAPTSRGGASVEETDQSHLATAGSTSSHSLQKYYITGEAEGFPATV

[2] = system: oligodendrocyte progenitor cells (OPCs), OPC-5; experiment: Differentiation of OPCs to MBP+ oligodendrocytes (in vitro phenotypic screening, high-content imaging); type: cell-based, mouse
Procedure: To rigorously assess effects of small molecule and genetic treatments on OPCs, all treatments were assayed in two batches of epiblast stem cell-derived OPCs, and key results were confirmed using mouse primary OPCs. OPCs were generated from two separate EpiSC lines, EpiSC5 (giving rise to OPC-5 OPCs) and 12901 (giving rise to OPC-1 OPCs). EpiSC-derived OPCs were obtained using in vitro differentiation protocols and culture conditions described previously. To ensure uniformity throughout all in vitro screening experiments, EpiSC-derived OPCs were sorted to purity by fluorescence activated cell sorting at passage five with conjugated CD 140a-APC (eBioscience, 17-1401; 1:80) and NG2-AF488 (Millipore, AB5320A4; 1:100) antibodies. Sorted batches of OPCs were expanded and frozen down in aliquots. OPCs were thawed into growth conditions for one passage before use in further assays. Cultures were regularly tested and shown to be mycoplasma free.
EpiSC-derived OPCs were grown and expanded in poly-ornithine (PO) and laminin-coated flasks with growth medium (DMEM/F12 supplemented with N2-MAX (R&D Systems), B-27 (ThermoFisher), GlutaMax (Gibco), FGF2 ([…], R&D systems, 233-FB-025) and PDGF-AA ([…], R&D systems, 233-AA-050) before harvesting for plating. The cells were seeded onto poly-D-lysine 96-well CellCarrier or CellCarrierUltra plates (PerkinElmer) coated with laminin (Sigma, L2020; 15 μg/ml) using multi-channel pipet. For the experiment, 800,000 cells/mL stock in differentiation medium (DMEM/F12 supplemented with N2-MAX and B-27) was prepared and stored on ice for 2 h. Then, 40,000 cells were seeded per well in differentiation medium and allowed to attach for 30 min before addition of drug. For dose-response testing of all molecules except sterols, a 1000× compound stock in dimethyl sulphoxide (DMSO) was added to assay plates with 0.1 μL solid pin multi-blot replicators (V & P Scientific; VP 409), resulting in a final primary screening concentration of 1×. Cells were incubated under standard conditions (37° C., 5% CO2) for 3 days and fixed with 4% paraformaldehyde (PFA) in phosphate buffered saline (PBS) for 20 min. Fixed plates were washed with PBS (200 μL per well) twice, permeabilized with 0.1% Triton X-100 and blocked with 10% donkey serum (v/v) in PBS for 40 min. Then, cells were labelled with MBP antibodies (Abcam, ab7349; 1:200) for 16 h at 4° C. followed by detection with Alexa Fluor conjugated secondary antibodies (1:500) for 45 min. Nuclei were visualized by DAPI staining (Sigma; 1 μg/ml). During washing steps, PBS was added using a multi-channel pipet and aspiration was performed using Biotek EL406 washer dispenser (Biotek) equipped with a 96-well aspiration manifold.
Plates were imaged on the Operetta High Content Imaging and Analysis system (PerkinElmer) and a set of 6 fields captured from each well resulting in an average of 1200 cells being scored per well. Analysis (PerkinElmer Harmony and Columbus software) began by identifying intact nuclei stained by DAPI; that is, those traced nuclei that were larger than 300 μm2 in surface area. Each traced nucleus region was then expanded by 50% and cross-referenced with the […] (MBP) stain to identify oligodendrocyte nuclei, and from this the percentage of oligodendrocytes was calculated.

[3] = system: EpiSC derived OPCs on microfibers; experiment: Oligodendrocyte formation and imaging on electrospun microfibers; type: cell-based, mouse; details: FIG. 4b
Procedure: A 12-well plate containing Mimetex aligned scaffold (microfiber plate, AMSBIO, AMS.TECL-006-1X, Electrospun poly-L-lactide Scaffold, […] fibre diameter cell crown inserts) was prepared as previously described. Briefly, fiber inserts were sterilized with 70% ethanol and washed with PBS before being coated with polyornithine and laminin. After laminin coating, 100,000 cells/mL of EpiSC derived OPCs (1.5 mL/well) were plated in differentiation medium. After 24 h the media was replaced with fresh media containing small molecule treatments. Every 48 h the media was replaced with fresh compound containing media for the first 4 days of 14 days culture. Microfibre inserts were fixed with 4% PFA, permeabilized with 0.1% Triton X-100, and blocked with 10% donkey serum (v/v) in PBS for 60 min. Then stained for MBP (Abcam, ab7349; 1:100) and DAPI staining (Sigma; 5 μg/ml). […] The mounted inserts were imaged on the Operetta High Content Imaging and Analysis system (PerkinElmer) and a set of 22 fields captured from each condition resulting in an average of 2000 cells being scored per well. The total microfiber area was calculated using bright filed imaging and a spot finding function (area larger than 2 p×2). The MBP+ pixel area within the defined microfiber area was then defined and the percentage of the total microfiber area calculated.

kappa opioid receptor, sequence (P41145 whole entry): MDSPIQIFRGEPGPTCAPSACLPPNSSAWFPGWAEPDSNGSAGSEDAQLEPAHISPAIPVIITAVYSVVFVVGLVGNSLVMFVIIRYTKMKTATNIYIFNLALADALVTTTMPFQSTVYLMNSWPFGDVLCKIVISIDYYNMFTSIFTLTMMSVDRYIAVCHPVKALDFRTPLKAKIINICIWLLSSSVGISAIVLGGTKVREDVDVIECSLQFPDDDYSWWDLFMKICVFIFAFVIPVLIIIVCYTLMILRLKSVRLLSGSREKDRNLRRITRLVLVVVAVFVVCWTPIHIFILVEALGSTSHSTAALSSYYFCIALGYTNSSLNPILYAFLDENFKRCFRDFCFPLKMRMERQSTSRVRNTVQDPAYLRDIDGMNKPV

effect in cell-based assay for the kappa opioid receptor (kappa opioid receptor): little affinity
effect in cell-based assay for the estrogen receptor (estrogen dependent growth of T47D cells) [1]: little affinity
SMILES: c1ccc(-c2ccc(CN3CCCCCCC3)cc2)cc1 [Compound 1]
activation at 0.03 µM ([2]; Mus musculus, Oligodendrocyte progenitor cell, 0.03 μM, 72 h treatment, read-out: % enhancement of MBP+ oligodendrocyte generation at 0.03 μM concentration): 20 to 30%
activation at 0.1 µM ([2]; Mus musculus, Oligodendrocyte progenitor cell, 0.1 μM, 72 h treatment, read-out: % enhancement of MBP+ oligodendrocyte generation at 0.1 μM concentration): > 40%
activation at 0.3 µM ([2]; Mus musculus, Oligodendrocyte progenitor cell, 0.3 μM, 72 h treatment, read-out: % enhancement of MBP+ oligodendrocyte generation at 0.3 μM concentration): > 40%
activation at 1 µM ([2]; Mus musculus, Oligodendrocyte progenitor cell, 1 μM, 72 h treatment, read-out: % enhancement of MBP+ oligodendrocyte generation at 1 μM concentration): > 40%
enhancement of oligodendrocyte formation (in words) ([2]; OPC-5, FIGS. 2a-2c): near maximal effects observed at 110 nM; also recorded: near maximal effects on oligodendrocyte formation at 110 nM
area of microfibers wrapped by MBP+ oligodendrocytes [3]: substantially increased

— patent US12048678B2, “Compounds for treating myelin related disorders” (Case Western Reserve University, priority 2018, dated 2024)
